What is called inhibition is the relative decrease from the control value, in per cent. Broadly, the CC50 is the concentration at which the toxic effect on the cells reaches its halfway point. The EC50 is the concentration needed to bring the measured effect to its halfway point.

For series [1], the system named is Zika virus. In words: Antiviral activity against Zika virus infected in African green monkey Vero cells assessed as inhibition of viral RNA replication at 10 uM after 24 hrs by RT-PCR method relative to control. The series is classed as functional.
A short description of series [2]: Cytotoxicity against African green monkey Vero cells assessed as reduction in cell viability after 72 hrs by XTT assay. The conditions noted are these: chlorocebus sabaeus. The series is classed as cell-based. (Tetrazolium assays rely on reduction of a dye to a coloured formazan, in cell work by metabolically active cells.)
Series [3] is described as follows: Selectivity index, ratio of CC50 for African green monkey Vero cells to EC50 for Zika virus infected in African green monkey Vero cells. The series is classed as toxicity. The conditions noted are these: read-out: Ratio CC50/EC50.
In series [4] the test system is Zika virus. In words: Antiviral activity against Zika virus infected in African green monkey Vero cells assessed as inhibition of viral RNA replication after 24 hrs by RT-PCR method. The series is classed as functional.
The test system of series [5] is Zika virus. In words: Potency index, ratio of mefloquine EC50 to test compound EC50 for Zika virus infected in African green monkey Vero cells. The series is classed as functional.
The test system of series [6] is Vero. In words: Cytotoxicity against African green monkey Vero cells assessed as reduction in cell viability at 10 uM after 72 hrs by XTT assay relative to control. The series is classed as cell-based. The conditions noted are these: chlorocebus sabaeus.
Series [7] relates to Zika virus. In words: Potency index, ratio of chloroquine EC50 to test compound EC50 for Zika virus infected in African green monkey Vero cells. The series is classed as functional.

In the case of `COc1cc(C(F)(F)F)nc2c(C(F)(F)F)cccc12`, the inhibition at 10 µM in series [1] turned out to be 12%.
In the case of `OCCNc1cc(C(F)(F)F)nc2c(C(F)(F)F)cccc12`, the CC50 at 72 h in series [2] is 189 µM. In addition, the selectivity ratio in series [3] stood at 236. Also, the EC50 in series [4] came out at 0.8 µM. In addition, the inhibition at 10 µM in series [1] stood at 74.4%. Also, the “Ratio EC50” value in series [5] is listed as 5.
Regarding `NCCCCCCCCCCNc1cc(C(F)(F)F)nc2c(C(F)(F)F)cccc12`, the Activity in series [6] is above 80%.
As for `NCCNc1cc(C(F)(F)F)nc2c(C(F)(F)F)cccc12`, the CC50 at 72 h in series [2] came to 195 µM. The selectivity ratio in series [3] amounted to 243. The EC50 in series [4] turned out to be 0.8 µM. Moreover, the inhibition at 10 µM in series [1] is 78.6%. Also, the “Ratio EC50” value in series [5] came to 5.
As to `FC(F)(F)c1cc(NCCCl)c2cccc(C(F)(F)F)c2n1`, the 50% cytotoxic concentration (CC50) at 72 h in series [2] worked out at 316 µM. Further, in series [3], the selectivity ratio stood at 225. Moreover, the EC50 in series [4] is 1.4 µM. Moreover, in series [1], the inhibition at 10 µM was 86.9%. In series [5], the “Ratio EC50” value is reported as 3.
Consider `CCCCNc1cc(C(F)(F)F)nc2c(C(F)(F)F)cccc12`, for which, in series [1], the inhibition at 10 µM came to 58.8%.
Consider `NCCCNc1cc(C(F)(F)F)nc2c(C(F)(F)F)cccc12`, for which the CC50 at 72 h in series [2] was found to be 287 µM. In addition, the selectivity ratio in series [3] is 143. Besides, in series [4], the EC50 is 2 µM. For the same compound, in series [1], the inhibition at 10 µM came out at 79.9%. Moreover, in series [5], the “Ratio EC50” value came to 2.
On to `O[C@@H](c1cc(C(F)(F)F)nc2c(C(F)(F)F)cccc12)[C@H]1CCCCN1` [(S,R)-MEFLOQUINE], for which the CC50 at 72 h in series [2] stood at 212 µM. In addition, the selectivity ratio in series [3] worked out at 58. Moreover, the EC50 in series [4] is 3.6 µM. Further, the inhibition at 10 µM in series [1] is 78.8%. Also, the “Ratio EC50” value in series [7] worked out at 3.
Take `CCN(CC)CCCC(C)Nc1ccnc2cc(Cl)ccc12` (stereo not given) [CHLOROQUINE]: the CC50 at 72 h in series [2] was determined as 412 µM. Also, the EC50 in series [4] was 12 µM.

The values are drawn from ChEMBL document CHEMBL3994617, “2,8-bis(trifluoromethyl)quinoline analogs show improved anti-Zika virus activity, compared to mefloquine” (Eur J Med Chem, 2017).
